Results reported in paper PMC7376718, “Flavonoids isolated from the South African weed Chromolaena odorata (Asteraceae) have pharmacological activity against uropathogens” (BMC Complementary Medicine and Therapies, 2020).
≈ marks a conversion by molar mass, not a printed value. Like-named read-outs stand apart in the source and are kept apart here.

Key:
[1] = test system: Aspergillus fumigatus from a chicken; assay: MIC, serial microdilution with INT; type: cell-based; details: Aspergillus fumigatus, read-out: Minimum inhibitory concentration
Excerpt: (§1) The cultures used were Escherichia coli (American Type Culture Collection, ATCC 25922) labelled as 1, E. coli isolates (B1989/17 and B1962/17) labelled as 2 and 3 from equine urine, collected from the Department of Veterinary Tropical Diseases, Faculty of Veterinary Science, University of Pretoria, South Africa, Klebsiella pneumoniae isolate from commercial chicken eggs, Enterococcus faecalis (ATCC 29212), Pseudomonas aeruginosa (ATCC 27853), Staphylococcus aureus (ATCC 29213), Candida albicans from a Gouldian finch, Aspergillus fumigatus from a chicken and Cryptococcus neoformans from a cheetah. These microbial strains were maintained on MHA or SDA for bacteria and fungi respectively, while the isolates were maintained on blood agar.
(§2) Ten mg/mL of each fraction and 1 mg/mL of isolated compounds were prepared in 10% DMSO and tested against S. aureus, E. coli, K. pneumoniae, E. faecalis, P. aeruginosa, C. albicans, C. neoformans and A. fumigatus. Cultures were prepared by inoculating each microbial strain from prepared agar plates into sterilized MHB for bacterial and SDB for fungi in sterile McCartney bottles respectively. The inoculums were placed in an orbital shaker incubator. Bacterial strains were incubated at 37 °C for 18 h. Each bacterial culture was diluted in fresh MHB and the absorbance was measured at a wavelength of 560 nm using a microplate reader (Epoch Biotek). The readings were compared to a McFarland standard No. 1 correlating to approximately 3 × 10^8 cfu/mL). For fungi strains, cultures were incubated at 30 °C for 24 h (C. albicans), 72 h (C. neoformans) and 120 h (A. fumigatus) respectively. The resultant cells and spores were washed with sterile normal saline and absorbance was measured at a wavelength of 560 nm and turbidity was adjusted to a McFarland standard 1.This was further diluted in a 1:10 ratio in SDB to a turbidity of 5 × 10^5 cfu/mL. These diluted cultures (bacterial and fungi) were used for the screening following the serial microdilution method of Eloff.

[2] = test system: Cryptococcus neoformans from a cheetah; assay: MIC, serial microdilution with INT; type: cell-based; details: C. neoformans, read-out: Minimum inhibitory concentration
Excerpt: as §1, §2

[3] = test system: E. coli (B1962/17) isolate from equine urine, E. coli (3); assay: MIC, serial microdilution with INT; type: cell-based; details: Escherichia coli, read-out: Minimum inhibitory concentration
Excerpt: as §1, §2

[4] = test system: E. coli (B1989/17) isolate from equine urine, E. coli (2); assay: MIC, serial microdilution with INT; type: cell-based; details: Escherichia coli, read-out: Minimum inhibitory concentration
Excerpt: as §1, §2

[5] = test system: Escherichia coli (ATCC 25922), E. coli (1); assay: MIC, serial microdilution with INT; type: cell-based; details: Escherichia coli, ATCC25922, E. coli (1), read-out: Minimum inhibitory concentration
Excerpt: as §1, §2

[6] = test system: Klebsiella pneumoniae isolate from commercial chicken eggs; assay: MIC, serial microdilution with INT; type: cell-based; details: Klebsiella pneumoniae, K. pneumoniae; read-out: Minimum inhibitory concentration
Excerpt: as §1, §2

[7] = test system: Staphylococcus aureus (ATCC 29213); assay: MIC, serial microdilution with INT; type: cell-based; details: ATCC29213, S. aureus, read-out: Minimum inhibitory concentration
Excerpt: as §1, §2

[8] = test system: E. coli; assay: Metabolic activity inhibition (INT); type: cell-based, Escherichia coli
Method: The ability of the isolated compounds to inhibit the bacterial metabolic activity was tested against E. coli and S. aureus following the method used by Ramage and Lopez-Ribot with slight modification. The organisms were inoculated in a 96-well microplate following the same biofilm assay procedure described above. The final concentration of each compound in the wells was 0.016 mg/mL, 0.031 mg/mL, 0.063 mg/mL, 0.125 mg/mL and 1 mg/mL respectively. After 24 h of incubation with samples, the plates were washed three times with sterile distilled water and 50 μL of 1 mg/mL INT was added to each well and further incubated in the dark for 2 h. After incubation, absorbance was read at 490 nm using a microplate reader and the percentages of reduction of bacterial metabolic activity in the presence of different concentrations of compounds were calculated using the formula:
percentage inhibiton=mean of culture control−mean of sample/mean of culture controlx100

[9] = test system: Vero monkey kidney cells; assay: in vitro; details: Vero
Method: Different concentrations of the compounds ranging from 0.003 to 0.2 mg/mL were tested for cytotoxicity against three cell lines; Vero monkey kidney, C3A and Caco2. Vero cells were grown and maintained in MEM, supplemented with 0.1% gentamicin and 5% foetal calf serum, while Caco2 and C3A cells were grown and maintained in DMEM supplemented with 10% foetal calf serum, 1% non-essential amino acids and 1% penicillin-streptomycin. All cells were incubated in a 5% CO2 incubator at 37 °C. Doxorubicin chloride was used as positive control while 10% DMSO used in dissolving the test samples was used as the negative control. The 3-(4,5-dimethylthiazol)-2,5-diphenyl tetrazolium bromide (MTT) assay described by Mosmann with modification by McGaw et al. was used to determine the cytotoxicity of the test samples. The lethal concentration (LC50) value was calculated as the concentration of tested sample resulting in a 50% reduction of absorbance compared to untreated cells. Selectivity index (SI) values were calculated against the MIC using the formula: […]

Structure (SMILES)	MIC ([1]; 48 h) [µg/mL]	MIC ([1]; 72 h) [µg/mL]	MIC ([1]; 120 h) [µg/mL]	MIC ([2]; 48 h, 48 h) [µg/mL]	MIC ([2]; 72 h, 72 h) [µg/mL]	MIC [3] [µg/mL]	MIC [4] [µg/mL]	MIC [5] [µg/mL]	MIC [6] [µg/mL]	MIC [7] [µg/mL]	Metabolic activity inhibition (verdict in words) [8]	Selectivity index (LC50/MIC) ([9]; A. fumigatus 48 h)	Selectivity index (LC50/MIC) ([9]; E. coli (1))	Selectivity index (LC50/MIC) ([9]; E. coli (2))	Selectivity index (LC50/MIC) ([9]; E. coli (3))	Selectivity index (LC50/MIC) ([9]; K. pneumoniae)	Selectivity index (LC50/MIC) ([9]; S. aureus)	Selectivity index (LC50/MIC) ([9]; C. neoformans 48 h)	Selectivity index (LC50/MIC) ([9]; C. neoformans 72 h)
COc1ccc(-c2oc3cc(OC)cc(O)c3c(=O)c2OC)cc1 [Compound 3, 5-hydroxy-3,7,4′-trimethoxyflavone]	31 (≈ 94.4 µM)	250 (≈ 761 µM)	> 2500	> 250	> 250	250 (≈ 761 µM)	250 (≈ 761 µM)	63 (≈ 192 µM)	125 (≈ 381 µM)	16 (≈ 48.7 µM)	good	6.355	3.127	0.788	0.788	1.576	12.313		
COc1ccc(C2CC(=O)c3c(OC)cc(OC)cc3O2)cc1 (racemic) [Compound 2, (±)-4′,5,7-trimethoxy flavanone]	16 (≈ 50.9 µM)	125 (≈ 398 µM)	> 2500	16 (≈ 50.9 µM)	125 (≈ 398 µM)	31 (≈ 98.6 µM)	31 (≈ 98.6 µM)	31 (≈ 98.6 µM)	125 (≈ 398 µM)	31 (≈ 98.6 µM)	good		6.515	6.452	6.452	1.616	6.516	12.625	1.616
